Measurements as given in article PMC6440977, “Nucleoside analogue activators of cyclic AMP-independent protein kinase A of Trypanosoma” (Nature Communications, 2019).
“And” between values parts separate entries of the source, which are not always exact repeats. Equal values may be shown once. Read-outs that look alike come from different tables or passages of the source.

Tests used:
[1] = biological target: T. brucei PKAR-PKAC1 holoenzyme (Trypanosoma brucei, UniProt Q9GU80); assay: biochemical; assay type: biochemical; conditions: for In vitro kinase assay: technical replicates
[2] = tested on: T. brucei phosphoproteome; assay: Quantitative phosphoproteomics; assay type: cell-based, Trypanosoma brucei
Protocol: For each sample, 6 × 10^8 T. brucei cells treated or not with 8 µM 7-cyano-7-deazainosine for 15 min were lysed in 300 µl 4% (w/v) sodium deoxycholate, 0.1 M Tris, pH 8.5 for 5 min at 95 °C (according to the protocol of Humphrey et al.[78]). Samples were sonicated using a Bioruptor (Diagenode) (high power, two cycles of 10 min each, 30 s on/off). Protein concentration was determined by BCA protein assay and samples were adjusted to equal concentrations. Sample preparation and mass spectrometry were exactly carried out as described by Humphrey et al.[78]. MaxQuant 1.5.2.8[79] was used to identify proteins and quantify by LFQ with the following parameters: Database, TriTrypDB-39_TbruceiTREU927_AnnotatedProteins; MS tol, 10 ppm; MS/MS tol, 0.5 Da; Peptide FDR, 0.1; Protein FDR, 0.01 Min. peptide Length, 5; Variable modifications, Oxidation (M), Phosphorylation (STY); Fixed modifications, Carbamidomethyl (C); Peptides for protein quantitation, razor and unique; Min. peptides, 1; Min. ratio count, 2. For proteomic analysis, identified proteins were considered as statistically significant with FDR ≤ 0.05 and s0 = 1 (two-sided Student’s T-test adjusted for multiple comparisons by Benjamini–Hochberg correction, Perseus[80]). […] The mass spectrometry phosphoproteomics data have been deposited to the ProteomeExchange Consortium via the PRIDE partner repository (https://www.ebi.ac.uk/pride/archive) with the dataset identifier PXD012245. GO enrichment analysis was performed in TriTrypDB with default settings and visualized in Revigo (http://revigo.irb.hr). The motif discovery tool MoMo (using the motif-x algorithm) implemented in the MEME suite (http://meme-suite.org/) was used for unbiased motif discovery in the phosphoproteome dataset with the T. brucei TriTrypDB-40_TbruceiTREU927 protein database as background. Enriched sequence logos were visualized using CLC Main Workbench 7 (https://www.qiagenbioinformatics.com/).

T. brucei proteome = assay: Label-free quantitative proteomics; assay type: cell-based, Trypanosoma brucei
Protocol: Trypanosomes treated or not with 2 µM 7-CN-7-C-Ino (time course: 0 h, 6 h, 12 h) were washed twice in phosphate buffered saline (PBS) and lysed in Laemmli sample buffer to a concentration of 2.5×10^5 cells µl -1. Protein concentration was determined by Colloidal Coomassie Blue staining and densitometry. 20 µg of protein were loaded on a 10% acrylamide SDS-PAGE gel. Migration was stopped when samples had entered the resolving gel and proteins were visualized by Colloidal Coomassie Blue staining. Each SDS-PAGE band was cut into 1 mm × 1 mm gel pieces and further processed as described previously 26.
Online nanoLC-MS/MS analyses were performed using an Ultimate 3000 RSLC Nano-UPHLC system (Thermo Scientific, USA) coupled to a nanospray Q-Exactive hybrid quadrupole-Orbitrap mass spectrometer (Thermo Scientific, USA). 1 µg of each peptide extract was loaded on a 300 µm ID x 5 mm PepMap C18 precolumn (Thermo Scientific, USA) at a flow rate of 20 µl min -1. After a 3 min desalting step, peptides were separated on a 75 µm ID x 25 cm C 18 Acclaim PepMap® RSLC column (Thermo Scientific, USA) with a 4-40% linear gradient of solvent B (0.1% formic acid in 80% ACN) in 108 min. The separation flow rate was set at 300 nl min-1. The mass spectrometer operated in positive ion mode at a 1.8 kV needle voltage. Data was acquired using Xcalibur 3.1 software in a data-dependent mod e. MS scans (m/z 300-1,600) were recorded at a resolution of R = 70,000 (@ m/z 200) and an AGC target of 3×10 6 ions collected within 100 ms. Dynamic exclusion was set to 30 s and top 12 ions were selected from fragmentation in HCD mode. MS/MS scans with a target value of 1×10 5 ions

PKAC1/2 = assay type: cell-based, Trypanosoma brucei; conditions: for PKAC1/2 Western quantification: normalized to PFR, WT 0h set to 1, individual replicates; for PKAC1/2 counts / PKAC1/2 normalized / PKAC1/2 fold change: 4 µM; for PKAC1/2 normalized: normalized to PFR-A/C; for PKAC1/2 fold change: untreated WT set to 1
T. brucei BSF cells (WT) = assay: Alamar blue cell viability assay, wild type;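 further: trypanosomes seeded at 5×10^3 per ml and grown 72 h with compound, then resazurin 0.5 mM added for 4 h as the viability read-out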
[3] = treated (Act) vs control (Crtl), significant, FDR ≤ 0.05, s0=2, 4 replicates
[4] = WT trypanosomes, 12 hours treatment vs untreated, LFQ, three independent replicates
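Wherever PKAC1/2 Western quantification is given: trypanosoma brucei cells, PKAC1/2 signal from western blots read on an infrared fluorescence scanning system.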
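Wherever PKAC1/2 counts is given: trypanosoma brucei cells, PKAC1/2 signal from western blots read on an infrared fluorescence scanning system.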
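Wherever PKAC1/2 fold change is given: trypanosoma brucei cells, PKAC1/2 signal from western blots read on an infrared fluorescence scanning system.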
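Wherever PKAC1/2 normalized is given: trypanosoma brucei cells, PKAC1/2 signal from western blots read on an infrared fluorescence scanning system.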

Chain of T. brucei PKAR-PKAC1 holoenzyme (Q38DR5 entry or part of it): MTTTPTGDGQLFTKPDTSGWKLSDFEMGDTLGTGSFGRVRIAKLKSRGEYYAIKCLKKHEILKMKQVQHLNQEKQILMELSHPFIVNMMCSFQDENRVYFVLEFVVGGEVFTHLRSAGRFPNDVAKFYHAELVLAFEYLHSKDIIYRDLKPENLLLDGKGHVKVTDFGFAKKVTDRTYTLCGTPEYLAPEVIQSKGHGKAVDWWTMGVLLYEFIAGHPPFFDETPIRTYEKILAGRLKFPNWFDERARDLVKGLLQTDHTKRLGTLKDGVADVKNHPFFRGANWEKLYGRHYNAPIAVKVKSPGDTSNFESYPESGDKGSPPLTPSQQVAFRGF
Chain of T. brucei PKAR-PKAC1 holoenzyme (Q9GU80 entry or part of it): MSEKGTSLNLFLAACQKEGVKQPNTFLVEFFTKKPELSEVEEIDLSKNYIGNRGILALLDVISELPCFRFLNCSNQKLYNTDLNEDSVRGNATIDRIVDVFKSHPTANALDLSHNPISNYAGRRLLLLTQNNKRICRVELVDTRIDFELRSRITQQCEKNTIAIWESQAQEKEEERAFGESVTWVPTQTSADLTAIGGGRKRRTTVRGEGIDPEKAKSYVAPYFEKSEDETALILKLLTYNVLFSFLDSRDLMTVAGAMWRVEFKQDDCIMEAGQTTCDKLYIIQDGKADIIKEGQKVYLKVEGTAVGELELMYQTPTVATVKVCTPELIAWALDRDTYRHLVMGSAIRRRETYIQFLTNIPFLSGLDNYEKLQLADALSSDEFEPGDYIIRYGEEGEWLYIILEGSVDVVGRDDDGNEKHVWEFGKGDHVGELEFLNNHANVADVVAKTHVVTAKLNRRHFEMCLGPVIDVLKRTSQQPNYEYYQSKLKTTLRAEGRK

## N#Cc1cn([C@@H]2O[C@H](CO)[C@@H](O)[C@H]2O)c2ncnc(O)c12 [7-CN-7-C-Ino, 7-Cyano-7-deazainosine]
[1]; 0.00014 µM
  In vitro kinase assay: 0.05 U/ml and 0.04 U/ml (2×)
[1]; 0.00041 µM
  In vitro kinase assay: 0.05 U/ml
[1]; 0.00123 µM
  In vitro kinase assay: 0.08 U/ml and 0.07 U/ml (2×)
[1]; 0.0037 µM
  In vitro kinase assay: 0.12 U/ml
[1]; 0.01111 µM
  In vitro kinase assay: 0.16 U/ml (2×) and 0.18 U/ml
[1]; 0.03333 µM
  In vitro kinase assay: 0.2 U/ml and 0.19 U/ml (2×)
[1]; 0.1 µM
  In vitro kinase assay: 0.18 U/ml and 0.17 U/ml and 0.19 U/ml
[1]; 0.3 µM
  In vitro kinase assay: 0.17 U/ml and 0.2 U/ml and 0.16 U/ml
[1]; ratio of EC50
  higher activation potency on purified holoenzyme compared to Toyo: 36 fold
[2]; 8 µM, 15 min
  downregulated phosphosites (number): 84
  downregulated phosphosites containing PKA motifs: 19%
  upregulated phosphosites containing PKA motifs: 77%
[2]; 8 µM, 15 min, FDR ≤ 0.05, s0 = 2
  significantly upregulated phosphosites (number): 642
[2]; [3]
  Difference, phosphopeptide Tb11.v5.1036.1 gamma-tubulin complex subunit, putative, S120: 3.988
  Difference, phosphopeptide Tb927.10.630 hypothetical protein, conserved, S331: 2.868
  Difference, phosphopeptide Tb927.10.8410 hypothetical protein, conserved, S234: 2.478
T. brucei proteome; PKAR knock out trypanosomes, 12 hours treatment vs untreated, LFQ, three independent replicates
  fold regulation KO12 vs KO0 (up/down), Tb927.2.5820 hypothetical protein: 1.69 ± 0.28 fold
T. brucei proteome; [4]
  fold regulation WT12 vs WT0 (up/down), Tb927.10.12510 P-type H+-ATPase: 0.60 ± 0.03 fold
  fold regulation WT12 vs WT0 (up/down), Tb927.10.2440 Metacaspase-4: 0.65 ± 0.03 fold
  fold regulation WT12 vs WT0 (up/down), Tb927.10.8440 glucose transporter: 1.56 ± 0.16 fold
  fold regulation WT12 vs WT0 (up/down), Tb927.11.14750 PSP1 C-terminal conserved region: 0.52 ± 0.04 fold
  fold regulation WT12 vs WT0 (up/down), Tb927.2.5820 hypothetical protein: 1.82 ± 0.31 fold
  fold regulation WT12 vs WT0 (up/down), Tb927.4.4310 Nucleoporin NUP64: 0.65 ± 0.05 fold
  fold regulation WT12 vs WT0 (up/down), Tb927.7.3450 I/6 autoantigen: 1.58 ± 0.04 fold
  fold regulation WT12 vs WT0 (up/down), Tb927.7.7520;Tb927.7.7530 receptor-type adenylate cyclase GRESAG 4: 0.65 ± 0.02 fold
  fold regulation WT12 vs WT0 (up/down), Tb927.8.6760 IgE-dep. histamine-releasing factor: 0.66 ± 0.01 fold
  fold regulation WT12 vs WT0 (up/down), Tb927.8.7780 hypothetical protein: 1.55 ± 0.08 fold
  fold regulation WT12 vs WT0 (up/down), Tb927.9.10100 hypothetical protein: 0.53 ± 0.02 fold
  fold regulation WT12 vs WT0 (up/down), Tb927.9.11100 cAMP-dependent protein kinase catalytic subunit 1: 0.36 ± 0.01 fold
  fold regulation WT12 vs WT0 (up/down), Tb927.9.12380 Histidine phosphatase superfamily (branch 1): 0.48 ± 0.11 fold
  fold regulation WT12 vs WT0 (up/down), Tb927.9.2670 Engulfment and cell motility domain-containing protein: 1.70 ± 0.08 fold
T. brucei proteome; wild type, 6 h post induction
  significantly regulated proteins, in words: No significantly regulated proteins
T. brucei proteome; wild type, 12 h post induction, ≥[…], p ≤ 0.05
  significantly regulated proteins (number): 14
PKAC1/2; R KO cells, 6 h treatment
  PKAC1/2 Western quantification: 0.4425 and 0.1597 and 0.1981
PKAC1/2; R KO cells, 12 h treatment
  PKAC1/2 Western quantification: 0.2802 and 0.2063 and 0.2365
PKAC1/2; WT cells, 6 h treatment
  PKAC1/2 Western quantification: 0.4685 and 0.4579 and 0.5439
PKAC1/2; WT cells, 12 h treatment
  PKAC1/2 Western quantification: 0.3997 and 0.2606 and 0.4376
PKAC1/2; WT, 12 h
  PKAC1/2 counts: 99.53
  PKAC1/2 normalized: 60.689
  PKAC1/2 fold change: 0.4385
PKAC1/2; WT, 18 h
  PKAC1/2 counts: 76
  PKAC1/2 normalized: 55.0725
  PKAC1/2 fold change: 0.3979
PKAC1/2; WT, 24 h
  PKAC1/2 counts: 86.74
  PKAC1/2 normalized: 55.6026
  PKAC1/2 fold change: 0.4018
PKAC1/2; pkar KO, 12 h
  PKAC1/2 counts: 70.66
  PKAC1/2 normalized: 3.197
  PKAC1/2 fold change: 0.1969
PKAC1/2; pkar KO, 18 h
  PKAC1/2 counts: 69.65
  PKAC1/2 normalized: 3.869
  PKAC1/2 fold change: 0.2383
PKAC1/2; pkar KO, 24 h
  PKAC1/2 counts: 95.11
  PKAC1/2 normalized: 3.187
  PKAC1/2 fold change: 0.1963
T. brucei BSF cells (WT)
  increase of EC50 for cell viability compared to Toyo: > 170 fold
T. brucei BSF cells (WT); Trypanosoma brucei, 72 h, read-out: IC50 growth WT
  IC50: ≥ 125 µM
T. brucei BSF cells (WT); Trypanosoma brucei, read-out: EC50, Alamar blue cell viability assay, WT, individual replicate results, wild type cells, fit ambiguous, bound given in µM
  EC50: > 125 µM
T. brucei BSF cells (WT); continuous treatment
  effect on growth or viability, in words: does not produce these PKA-independent effects
